Key:
Dorea formicigenerans = experiment: IC25 growth inhibition; higher = less potent
Outline: (§1)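 Monocultures grown overnight in mGAM were added to pre-reduced plates holding twofold drug dilutions, giving a starting OD578 of 0.01 and 1% DMSO (or water). Growth was followed anaerobically by hourly OD578 readings in a plate reader, with at least three biological replicates. The median growth-curve AUC per concentration was forced to be monotonic. IC25 was the lowest concentration with median AUC below 0.75, reported as a tested interval.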

Clostridium ramosum = experiment: IC25 growth inhibition; higher = less potent
Outline: as §1

Eubacterium rectale = experiment: IC25 growth inhibition; higher = less potent
Outline: as §1

[1] = system: Fusobacterium nucleatum subsp. Nucleatum; experiment: IC25 growth inhibition; higher = less potent
Outline: as §1

Bacteroides vulgatus = experiment: IC25 growth inhibition; higher = less potent
Outline: as §1

Coprococcus comes = experiment: IC25 growth inhibition; higher = less potent
Outline: as §1

Bacteroides uniformis = experiment: IC25 growth inhibition; higher = less potent
Outline: as §1

Collinsella aerofaciens = experiment: IC25 growth inhibition; higher = less potent
Outline: as §1

[2] = system: Yersinia pseudotuberculosis; experiment: IC25 growth inhibition; higher = less potent
Outline: as §1

Roseburia intestinalis = experiment: IC25 growth inhibition; higher = less potent
Outline: as §1

Ruminococcus gnavus = experiment: IC25 growth inhibition; higher = less potent
Outline: as §1

Clostridium perfringens = experiment: IC25 growth inhibition; higher = less potent
Outline: as §1

Clostridium bolteae = experiment: IC25 growth inhibition; higher = less potent
Outline: as §1

[3] = system: Bacteroides thetaiotaomicron; experiment: IC25 growth inhibition; higher = less potent
Outline: as §1

Parabacteroides merdae = experiment: IC25 growth inhibition; higher = less potent
Outline: as §1

Escherichia coli ED1a = experiment: IC25 growth inhibition; higher = less potent
Outline: as §1

[4] = system: Clostridium saccharolyticum; experiment: IC25 growth inhibition; higher = less potent
Outline: as §1

Streptococcus salivarius = experiment: IC25 growth inhibition; higher = less potent
Outline: as §1

[5] = system: Salmonella enterica typhimurium; experiment: IC25 growth inhibition; higher = less potent
Outline: as §1

[6] = system: Yersinia enterocolitica WA-314; experiment: IC25 growth inhibition; higher = less potent
Outline: as §1

[7] = system: Streptococcus parasanguinis; experiment: IC25 growth inhibition; higher = less potent
Outline: as §1

Vibrio cholerae = experiment: IC25 growth inhibition; higher = less potent
Outline: as §1

Bacteroides fragilis NT = experiment: IC25 growth inhibition; higher = less potent
Outline: as §1

Shigella flexneri = experiment: IC25 growth inhibition; higher = less potent
Outline: as §1

[8] = system: Com21 synthetic gut community; experiment: community biomass OD578 after 24 h drug treatment relative to untreated (fraction of untreated control); higher = more community growth; settings: community: Com21 (Com20 + E. coli ED1a)
Method: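 Com21 (Com20 plus E. coli ED1a) was treated with drug for 24 h under anaerobic conditions in mGAM. Community OD578 was then measured and normalised to untreated Com21; mean of 3 biological replicates.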

[9] = drug pretreatment concentration 2.5 µM
[10] = drug pretreatment concentration 5 µM
[11] = drug pretreatment concentration 10 µM
[12] = drug pretreatment concentration 20 µM
[13] = drug pretreatment concentration 40 µM
[14] = drug pretreatment concentration 80 µM
[15] = drug pretreatment concentration 160 µM
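Throughout, for IC25 growth inhibition: lowest concentration where monotonic median growth AUC falls below 0.75 of drug-free control.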

SMILES	IC25 growth inhibition (Dorea formicigenerans)	IC25 growth inhibition (Clostridium ramosum)	IC25 growth inhibition (Eubacterium rectale)	IC25 growth inhibition [1]	IC25 growth inhibition (Bacteroides vulgatus)	IC25 growth inhibition (Coprococcus comes)	IC25 growth inhibition (Bacteroides uniformis)	IC25 growth inhibition (Collinsella aerofaciens)	IC25 growth inhibition [2]	IC25 growth inhibition (Roseburia intestinalis)	IC25 growth inhibition (Ruminococcus gnavus)	IC25 growth inhibition (Clostridium perfringens)	IC25 growth inhibition (Clostridium bolteae)	IC25 growth inhibition [3]	IC25 growth inhibition (Parabacteroides merdae)	IC25 growth inhibition (Escherichia coli ED1a)	IC25 growth inhibition [4]	IC25 growth inhibition (Streptococcus salivarius)	IC25 growth inhibition [5]	IC25 growth inhibition [6]	IC25 growth inhibition [7]	IC25 growth inhibition (Vibrio cholerae)	IC25 growth inhibition (Bacteroides fragilis NT)	IC25 growth inhibition (Shigella flexneri)	community biomass OD578 [8, 9]	community biomass OD578 [8, 10]	community biomass OD578 [8, 11]	community biomass OD578 [8, 12]	community biomass OD578 [8, 13]	community biomass OD578 [8, 14]	community biomass OD578 [8, 15]
Clc1ccccc1C(c1ccccc1)(c1ccccc1)n1ccnc1 [Clotrimazole]	≤ 10 µM	≤ 20 µM	≤ 10 µM	> 40 µM	≤ 80 µM	≤ 5 µM	≤ 80 µM	≤ 40 µM	> 20 µM	≤ 10 µM	≤ 20 µM	> 80 µM	≤ 80 µM	≤ 80 µM	≤ 40 µM	> 40 µM	≤ 40 µM	> 80 µM	> 80 µM	> 80 µM	> 80 µM	> 80 µM	≤ 80 µM	> 80 µM	0.969	0.989	1.03	1	0.976		
COc1ccc2[nH]c([S+]([O-])Cc3ncc(C)c(OC)c3C)nc2c1 (configuration not stated) [Omeprazole]	> 160 µM	> 160 µM	> 160 µM	> 160 µM	> 160 µM	> 160 µM	> 160 µM	> 160 µM	> 160 µM	> 160 µM	> 160 µM	> 160 µM	> 160 µM	> 160 µM	> 160 µM	> 160 µM	> 160 µM	> 160 µM	> 160 µM	> 160 µM	> 160 µM	> 160 µM	> 160 µM	> 160 µM			0.981	0.997	1.01	0.979	0.95
CN(C)CC/C=C1/c2ccccc2Sc2ccc(Cl)cc21 [Chlorprothixene]	≤ 40 µM	> 160 µM	≤ 80 µM	≤ 80 µM	≤ 40 µM	≤ 160 µM	≤ 40 µM	≤ 160 µM	≤ 160 µM	≤ 40 µM	≤ 160 µM	≤ 80 µM	≤ 160 µM	≤ 40 µM	≤ 160 µM	> 160 µM	≤ 80 µM	≤ 160 µM	> 160 µM	> 160 µM	> 160 µM	≤ 20 µM	≤ 80 µM	≤ 160 µM			0.988	1.02	0.99	0.965	0.48
C[C@]12CCC3=C4CCC(=O)C=C4CC[C@H]3[C@@H]1CC[C@@]2(O)CC#N [Dienogest]	> 80 µM	> 80 µM	> 80 µM	> 80 µM	> 80 µM	> 80 µM	> 80 µM	> 80 µM	> 80 µM	> 80 µM	> 80 µM	> 80 µM	> 80 µM	> 80 µM	> 80 µM	> 80 µM	> 80 µM	> 80 µM	> 80 µM	> 80 µM	> 80 µM	> 80 µM	> 80 µM	> 80 µM		0.994	0.987	1.01	0.995	0.975	
COCCOC(=O)C1=C(C)NC(C)=C(C(=O)OC/C=C/c2ccccc2)C1c1cccc([N+](=O)[O-])c1 (configuration not stated) [Cilnidipine]	> 10 µM	> 5 µM	> 10 µM	> 10 µM	> 10 µM	> 10 µM	> 40 µM	> 10 µM	> 10 µM	> 10 µM	> 20 µM	> 20 µM	> 10 µM	> 10 µM	> 20 µM	> 40 µM	> 10 µM	> 10 µM	> 5 µM	> 5 µM	> 20 µM	> 10 µM	> 10 µM	> 10 µM	1.03	1	1.06	1.03	0.993		
OC(Cn1cncn1)(Cn1cncn1)c1ccc(F)cc1F [Fluconazole]	> 160 µM	> 160 µM	≤ 40 µM	> 160 µM	> 160 µM	> 160 µM	> 160 µM	≤ 160 µM	> 160 µM	> 160 µM	> 160 µM	> 160 µM	> 160 µM	> 160 µM	> 160 µM	> 160 µM	> 160 µM	> 160 µM	> 160 µM	> 160 µM	> 160 µM	> 160 µM	> 160 µM	> 160 µM			0.936	1.02	0.993	0.99	1.04
CN1CCN(C2=Nc3ccccc3Oc3ccc(Cl)cc32)CC1 [Loxapine]	≤ 160 µM	> 160 µM	≤ 40 µM	≤ 160 µM	≤ 10 µM	> 40 µM	≤ 160 µM	> 160 µM	> 160 µM	≤ 160 µM	≤ 160 µM	≤ 160 µM	> 160 µM	≤ 40 µM	≤ 10 µM	> 160 µM	> 160 µM	≤ 160 µM	> 160 µM	> 160 µM	> 160 µM	≤ 80 µM	≤ 80 µM	> 160 µM			0.993	0.996	0.991	0.987	0.951
Clc1ccc(Cn2c(CN3CCCC3)nc3ccccc32)cc1 [Clemizole]	≤ 2.5 µM	≤ 10 µM	≤ 2.5 µM	≤ 160 µM	≤ 160 µM	≤ 2.5 µM	> 160 µM	≤ 20 µM	> 160 µM	≤ 5 µM	≤ 10 µM	≤ 160 µM	> 160 µM	≤ 160 µM	≤ 160 µM	> 160 µM	≤ 80 µM	> 160 µM	> 160 µM	> 160 µM	> 160 µM	≤ 80 µM	> 160 µM	> 160 µM			1.01	1	1.03	1.02	0.964

From the supplement of paper PMC12350171
